Reference: publication PMC10128460, “Discovery of the first-in-class potent and isoform-selective human carbonic anhydrase III inhibitors” (Journal of Enzyme Inhibition and Medicinal Chemistry, 2023)
Where “and” joins values, the source holds several entries; their conditions need not be identical. Identical values can stand only once. Like-named read-outs stand apart in the source and are kept apart here.

How the values were obtained:
[1] = target: T1, hCA I (Homo sapiens, UniProt P00915); assay: Stopped-Flow CO2 hydrase assay, hCA I; assay type: biochemical; conditions: mean from 3 assays, errors ± 5–10%
T1 construct: made in house
T1 sequence (P00915 whole entry): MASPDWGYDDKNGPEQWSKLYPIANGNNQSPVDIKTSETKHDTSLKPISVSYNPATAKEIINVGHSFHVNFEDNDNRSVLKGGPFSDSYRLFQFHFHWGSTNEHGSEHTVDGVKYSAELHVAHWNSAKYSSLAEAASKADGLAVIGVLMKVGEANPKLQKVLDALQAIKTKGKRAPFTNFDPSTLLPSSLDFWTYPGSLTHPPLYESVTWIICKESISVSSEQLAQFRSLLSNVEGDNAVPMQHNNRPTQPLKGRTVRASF
Method: (§1) An Applied Photophysics stopped-flow instrument has been used for assaying the CA catalysed CO2 hydration activity[47]. […] The CO2 concentrations ranged from 1.7 to 17 mM for the determination of the kinetic parameters and inhibition constants. […] The uncatalysed rates were determined in the same manner and subtracted from the total observed rates. Stock solutions of inhibitor (0.1 mM) were prepared in distilled − deionized water and dilutions up to 0.01 nM were done thereafter with the assay buffer. Inhibitor and enzyme solutions were preincubated together for 15 min at room temperature before assay to allow for the formation of the E − I complex. The inhibition constants were obtained by nonlinear least-squares methods using PRISM 3 and the Cheng − Prusoff equation, as reported earlier[48]^,[49], and represent the mean from at least three different determinations. […] All hCA isoforms were recombinant ones obtained in-house as reported earlier[50].

[2] = target: T2, hCA VB (Homo sapiens, UniProt Q9Y2D0); assay: Stopped-Flow CO2 hydrase assay, hCA VB; assay type: biochemical; conditions: mean from 3 assays, errors ± 5–10%
T2 construct: made in house
T2 sequence (Q9Y2D0 34-317): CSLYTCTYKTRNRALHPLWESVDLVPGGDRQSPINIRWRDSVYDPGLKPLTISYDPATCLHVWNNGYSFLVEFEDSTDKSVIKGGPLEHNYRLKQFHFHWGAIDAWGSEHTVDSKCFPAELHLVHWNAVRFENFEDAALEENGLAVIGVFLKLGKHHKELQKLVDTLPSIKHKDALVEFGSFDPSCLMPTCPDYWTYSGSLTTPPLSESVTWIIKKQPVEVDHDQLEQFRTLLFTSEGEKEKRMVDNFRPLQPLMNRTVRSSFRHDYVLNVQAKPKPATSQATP
Method: as §1

[3] = target: T3, hCA VA (Homo sapiens, UniProt P35218); assay: Stopped-Flow CO2 hydrase assay, hCA VA; assay type: biochemical
T3 construct: made in house
T3 sequence (P35218 39-305): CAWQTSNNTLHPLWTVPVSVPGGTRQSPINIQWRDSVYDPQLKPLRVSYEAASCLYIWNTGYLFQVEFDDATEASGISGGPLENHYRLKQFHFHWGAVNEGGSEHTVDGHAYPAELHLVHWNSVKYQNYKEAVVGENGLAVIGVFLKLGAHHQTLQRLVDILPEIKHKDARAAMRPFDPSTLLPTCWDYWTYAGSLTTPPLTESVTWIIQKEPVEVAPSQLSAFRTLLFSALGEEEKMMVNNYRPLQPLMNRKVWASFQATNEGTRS
Method: as §1

[4] = target: T4, hCA VII (Homo sapiens, UniProt P43166); assay: Stopped-Flow CO2 hydrase assay, hCA VII; assay type: biochemical; conditions: mean from 3 assays, errors ± 5–10%
T4 construct: made in house
T4 sequence (P43166 whole entry): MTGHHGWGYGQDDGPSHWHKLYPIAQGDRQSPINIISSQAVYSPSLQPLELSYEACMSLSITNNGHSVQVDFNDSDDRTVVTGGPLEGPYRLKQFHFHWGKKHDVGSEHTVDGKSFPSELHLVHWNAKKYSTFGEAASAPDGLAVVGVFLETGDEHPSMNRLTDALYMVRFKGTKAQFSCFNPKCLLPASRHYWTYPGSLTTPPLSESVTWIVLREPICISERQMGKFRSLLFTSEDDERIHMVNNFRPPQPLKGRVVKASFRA
Method: as §1

[5] = target: T5, hCA IV (Homo sapiens, UniProt P22748); assay: Stopped-Flow CO2 hydrase assay, hCA IV; assay type: biochemical; conditions: mean from 3 assays, errors ± 5–10%
T5 construct: made in house
T5 sequence (P22748 19-312): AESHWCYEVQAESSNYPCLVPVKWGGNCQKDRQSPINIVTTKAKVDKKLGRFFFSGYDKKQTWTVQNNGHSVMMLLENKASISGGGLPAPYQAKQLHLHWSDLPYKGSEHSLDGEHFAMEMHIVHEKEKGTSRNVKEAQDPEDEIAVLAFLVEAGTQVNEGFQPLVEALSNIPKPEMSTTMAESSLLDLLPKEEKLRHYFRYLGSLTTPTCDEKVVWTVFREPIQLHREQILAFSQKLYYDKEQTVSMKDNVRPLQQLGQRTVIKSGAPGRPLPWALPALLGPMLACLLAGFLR
Method: as §1

[6] = target: T6, hCA XII (Homo sapiens, UniProt O43570); assay: Stopped-Flow CO2 hydrase assay, hCA XII; assay type: biochemical; conditions: mean from 3 assays, errors ± 5–10%
T6 construct: made in house
T6 sequence (O43570 25-354): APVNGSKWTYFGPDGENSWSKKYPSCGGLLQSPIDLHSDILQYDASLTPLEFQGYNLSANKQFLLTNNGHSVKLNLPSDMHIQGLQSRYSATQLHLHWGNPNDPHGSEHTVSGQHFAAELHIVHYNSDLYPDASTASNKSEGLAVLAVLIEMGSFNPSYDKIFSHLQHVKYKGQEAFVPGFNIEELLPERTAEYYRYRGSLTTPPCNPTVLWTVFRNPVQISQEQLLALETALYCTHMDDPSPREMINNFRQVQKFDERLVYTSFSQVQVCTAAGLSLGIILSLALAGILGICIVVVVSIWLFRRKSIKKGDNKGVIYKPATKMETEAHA
Method: as §1

[7] = target: T7, hCA III (Homo sapiens, UniProt P07451); assay: Stopped-Flow CO2 hydrase assay, hCA III; assay type: biochemical; conditions: for Selectivity Index (SI) hCA I/hCA III: ratio of KI hCA I to KI hCA III; for Selectivity Index (SI) hCA II/hCA III: ratio of KI hCA II to KI hCA III; for Ki: stopped-flow CO2 hydrase, mean from 3 assays, errors ± 5–10%
T7 construct: made in house
T7 sequence (P07451 whole entry): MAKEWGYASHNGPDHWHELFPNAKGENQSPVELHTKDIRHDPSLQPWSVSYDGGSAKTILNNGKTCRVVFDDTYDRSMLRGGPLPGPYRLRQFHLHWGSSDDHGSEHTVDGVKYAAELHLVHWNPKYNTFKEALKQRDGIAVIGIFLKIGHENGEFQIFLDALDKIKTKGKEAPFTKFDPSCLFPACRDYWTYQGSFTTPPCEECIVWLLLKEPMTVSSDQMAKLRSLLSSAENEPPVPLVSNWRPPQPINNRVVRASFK
Method: as §1

[8] = target: T8, hCA II (Homo sapiens, UniProt P00918); assay: Stopped-Flow CO2 hydrase assay, hCA II; assay type: biochemical; conditions: mean from 3 assays, errors ± 5–10%
T8 construct: made in house
Method: as §1

[9] = stopped-flow CO2 hydrase, mean from 3 assays, errors ± 5–10%, read-out: KI hCA VA

Row | Compound | Ki [1] [µM] | Ki [2] [µM] | Ki [3, 9] [µM] | Ki [4] [µM] | Ki [5] | Ki [6] [µM] | Selectivity Index (SI) hCA I/hCA III [7] | Selectivity Index (SI) hCA II/hCA III [7] | Ki [7] [µM] | Ki [8] [µM] | melting point [°C] | Ki [3] [µM]
1 | 3–(4-(3-Fluorophenyl)-1H-1,2,3-triazol-1-yl)propane-1-sulfonamide [Compound 39] | 0.862 | 1.31 | 1.57 | 6.5 | 2.61 µM | 1.24 | 5.3 | 19.34 and 19.3 | 0.163 | 3.15 |  | 
2 | 3–(4-Phenyl-1H-1,2,3-triazol-1-yl)propane-1-sulfonamide [Compound 38] | 0.607 | 1.04 | 1.65 | 0.86 | 0.959 µM | 1.06 | 1.21 and 1.2 | 1.4 | 0.502 | 0.713 |  | 
3 | 4–(4-(3-Fluorophenyl)-1H-1,2,3-triazol-1-yl)butane-1-sulfonamide [Compound 52] | 0.778 | 2.99 | 1.27 | 3.23 | > 10 µM | 7.81 | 2.5 | 26.2 | 0.31 | 8.13 |  | 
4 | NS(=O)(=O)CCCn1cc(COc2ccccc2)nn1 [Compound 27, 3–(4-(Phenoxymethyl)-1H-1,2,3-triazol-1-yl)propane-1-sulfonamide] | 0.76 | 2.89 | 3.87 | 2.7 | 4.72 µM | 2.69 | 1.16 and 1.2 | 4.2 | 0.654 | 2.72 | 254 to 255 | 
5 | NS(=O)(=O)CCCn1cc(COc2ccc(F)cc2)nn1 [Compound 28, 3–(4-((4-Fluorophenoxy)methyl)-1H-1,2,3-triazol-1-yl)propane-1-sulfonamide] | 4.89 | 2.47 | 1.03 | 4.37 | > 10 µM | 2.48 | 6.7 | 2.8 | 0.728 | 2.03 | 261 to 263 | 
6 | COc1ccc(OCc2cn(CCCS(N)(=O)=O)nn2)cc1 [Compound 29, 3–(4-((4-Methoxyphenoxy)methyl)-1H-1,2,3-triazol-1-yl)propane-1-sulfonamide] | 1.16 | 3.03 | 4.81 | 2.71 | 5.44 µM | 1.95 | 2.1 | 4.4 | 0.554 | 2.45 | 273 to 274 | 
7 | COc1cccc(OCc2cn(CCCS(N)(=O)=O)nn2)c1 [Compound 30, 3–(4-((3-Methoxyphenoxy)methyl)-1H-1,2,3-triazol-1-yl)propane-1-sulfonamide] | 1.91 | 1.44 | 2.88 | 4.68 | > 10 µM | 1.1 | 5.5 | 11.89 and 11.9 | 0.345 | 4.1 | 270 to 272 | 
8 | NS(=O)(=O)CCCn1cc(CNC(=O)Nc2ccc(F)cc2)nn1 [Compound 31, 3–(4-((3–(4-Fluorophenyl)ureido)methyl)-1H-1,2,3-triazol-1-yl)propane-1-sulfonamide] | > 10 | 5.87 | 5.7 | 4.57 | 5.94 µM and 5.93 µM | 1.5 |  | 3.5 | 0.826 | 2.9 | 249 to 252 | 
9 | Cc1ccc(NC(=O)NCc2cn(CCCS(N)(=O)=O)nn2)cc1 [Compound 32, 3–(4-((3-(p-Tolyl)ureido)methyl)-1H-1,2,3-triazol-1-yl)propane-1-sulfonamide] | > 10 | 1.61 | 8.7 | 4.4 | 6.16 µM | 5.03 |  | 3.8 | 0.772 | 2.97 | 217 to 218 | 
10 | NS(=O)(=O)CCCn1cc(CNC(=O)Nc2ccc(C(F)(F)F)cc2)nn1 [Compound 33, 3–(4-((3–(4-(Trifluoromethyl)phenyl)ureido)methyl)-1H-1,2,3-triazol-1-yl)propane-1-sulfonamide] | > 10 | 2.09 | 7.04 | 5.41 | 0.875 µM | 2.63 |  | 4.2 | 0.989 | 4.16 | > 300 | 
11 | CCOC(=O)c1ccc(NC(=O)NCc2cn(CCCS(N)(=O)=O)nn2)cc1 [Compound 34, Ethyl 4–(3-((1–(3-sulfamoylpropyl)-1H-1,2,3-triazol-4-yl)methyl)ureido)benzoate] | > 10 | 3.74 | 2.65 | 2.31 | 4.46 µM | 4.9 | > 18.29 | 4.6 | 0.547 | 2.5 | 239 to 241 | 
12 | COc1cccc(NC(=O)NCc2cn(CCCS(N)(=O)=O)nn2)c1 [Compound 35, 3–(4-((3–(3-Methoxyphenyl)ureido)methyl)-1H-1,2,3-triazol-1-yl)propane-1-sulfonamide] | > 10 | 4 | 2.04 | 4.48 | > 10 µM | 1.98 |  | 1.19 and 1.2 | 0.786 | 0.937 | 214 to 215 | 
13 | NS(=O)(=O)CCCCn1cc(COc2ccccc2)nn1 [Compound 40, 4–(4-(Phenoxymethyl)-1H-1,2,3-triazol-1-yl)butane-1-sulfonamide] | 6.54 | 1.53 | 7.78 | 7.61 | 3.61 µM | 5.18 | 8.0 | 9.5 | 0.818 | 7.77 | 221 to 223 | 
14 | NS(=O)(=O)CCCCn1cc(COc2ccc(F)cc2)nn1 [Compound 41, 4–(4-((4-Fluorophenoxy)methyl)-1H-1,2,3-triazol-1-yl)butane-1-sulfonamide] | 6.43 | 1.24 | 4.39 | 5.33 | 5.51 µM | 2.1 | 10.4 | 13.14 and 13.1 | 0.618 | 8.13 | 246 to 248 | 
15 | COc1ccc(OCc2cn(CCCCS(N)(=O)=O)nn2)cc1 [Compound 42, 4–(4-((4-Methoxyphenoxy)methyl)-1H-1,2,3-triazol-1-yl)butane-1-sulfonamide] | 8.54 | 6.67 | 6.04 | 5.3 | 5.61 µM | 3.07 |  | 5.8 | 0.676 | 3.93 | 251 to 253 | 
16 | COc1cccc(OCc2cn(CCCCS(N)(=O)=O)nn2)c1 [Compound 43, 4–(4-((3-Methoxyphenoxy)methyl)-1H-1,2,3-triazol-1-yl)butane-1-sulfonamide] | 2.32 | 1.63 | 2.17 | 3.65 | 8.27 µM | 2.72 | 5.2 | 13.44 and 13.4 | 0.444 | 5.97 | 186 to 188 | 
17 | NS(=O)(=O)CCCCn1cc(CNC(=O)Nc2ccc(F)cc2)nn1 [Compound 44, 4–(4-((3–(4-Fluorophenyl)ureido)methyl)-1H-1,2,3-triazol-1-yl)butane-1-sulfonamide] | 5.38 | 2.55 |  | 3.35 | 2.92 µM | 3.71 | 9.0 | 12.66 and 12.7 | 0.599 | 7.58 | 284 to 286 | 1.35
18 | Cc1ccc(NC(=O)NCc2cn(CCCCS(N)(=O)=O)nn2)cc1 [Compound 45, 4–(4-((3-(p-Tolyl)ureido)methyl)-1H-1,2,3-triazol-1-yl)butane-1-sulfonamide] | 5.3 | 8.11 | 3.34 | 5.64 | 5.74 µM | 6.73 | 5.7 | 5.3 | 0.93 | 4.93 | 271 to 272 | 
19 | COc1ccc(NC(=O)NCc2cn(CCCCS(N)(=O)=O)nn2)c(C)c1 [Compound 49, 4–(4-((3–(4-Methoxy-2-methylphenyl)ureido)methyl)-1H-1,2,3-triazol-1-yl)butane-1-sulfonamide] | > 10 |  | 8.77 | 5.15 |  | 5.82 |  |  |  |  | 282 to 285 | 
20 | Ethyl 1–(4-sulfamoylbutyl)-1H-1,2,3-triazole-4-carboxylate [Compound 50] | 0.916 | 0.814 | 0.911 | 0.809 | 3.98 µM | 1.02 | 1.18 and 1.2 | 1.0 | 0.775 | 0.772 |  | 
